# Data from patent US7989632B2, “Crystalline forms of solvated ilaprazole” (Il Yang Pharmaceutical Company, Ltd., priority 2006, dated 2011).
# Assays:
# [1] = Dynamic Vapor Sorption/Desorption (DVS) isotherm; format: physicochemical; conditions: for DVS weight loss at 5% RH: samples not dried prior to analysis; for DVS weight loss from 95 to 5% RH: desorption
# Experimental: Dynamic Vapor Sorption/Desorption (DVS): Data were collected on a VTI SGA-100 moisture balance system. For sorption isotherms, a sorption range of 5 to 95% relative humidity (RH) and a desorption range of 95 to 5% RH in 10% RH increments were used for analysis. The samples were not dried prior to analysis. Equilibrium criteria used for analysis were less than 0.0100% weight change in 5 minutes with a maximum equilibration time of 3 hours if the weight criterion was not met. Data were not corrected for the initial moisture content of the samples.
# gastric acid = assay: Phase 1 clinical studies conducted with ilaprazole; format: in vivo, humans; conditions: Phase 1, at the doses studied
# [2] = system: gastric-acid related disorders; acid-related gastric and duodenal ulcers; assay: Phase 2 clinical studies conducted with ilaprazole; format: in vivo, humans; conditions: at the doses studied
compound,measurement,setting,value
"C1COCCO1.COc1ccnc(C[S+]([O-])c2nc3cc(-n4cccc4)ccc3[nH]2)c1C.COc1ccnc(C[S+]([O-])c2nc3cc(-n4cccc4)ccc3[nH]2)c1C (racemic) [Form C, crystalline 1,4-dioxane/racemic ilaprazole hemi-solvate]",DVS weight loss at 5% RH,[1],~1.2%
same,DVS weight loss from 95 to 5% RH,[1],~4.1%
same,DVS weight loss from 5 to 95% RH,"[1]; sorption, 5 to 95% RH",~1.1%
"C1CCOC1.COc1ccnc(C[S+]([O-])c2nc3cc(-n4cccc4)ccc3[nH]2)c1C.COc1ccnc(C[S+]([O-])c2nc3cc(-n4cccc4)ccc3[nH]2)c1C (racemic) [Form D, crystalline THF/racemic ilaprazole hemisolvate]",DVS weight loss at 5% RH,[1],~0.6%
same,DVS weight loss from 95 to 5% RH,[1],~1.2%
same,DVS weight gain from 5 to 95% RH,"[1]; sorption, 5 to 95% RH",~0.6%
"COc1ccnc(C[S+]([O-])c2nc3cc(-n4cccc4)ccc3[nH]2)c1C (stereo not drawn) [ilaprazole, 2[[(4-methoxy-3-methyl-2-pyridinyl)-methyl]sulfinyl]-5-(1H-pyrrol-1-yl) 1H-Benzimidazole]",suppression of gastric acid,gastric acid,suppression of gastric acid occurs over a 24-hour period
same,healing of ulcers,"[2]; Phase 2, acid-related gastric and duodenal ulcers",promoted rapid healing
same,symptomatic relief,"[2]; Phase 2, patients with gastric-acid related disorders",provided symptomatic relief
